{"source": "paper PMC8708875", "about": "(Pharmaceutics, 2021)", "key": {"[1]": {"test_system": "Erk and Akt phosphorylation in epididymal adipose and tibial muscle tissues", "experiment": "Erk and Akt phosphorylation in tissues after ip administration to WT mice", "assay_type": "in vivo, mouse", "conditions": "600 µg/kg ip, tissues collected 30 min after administration", "procedure": "Western blotting experiments were performed to evaluate the expression levels of specific proteins. Briefly, cells or tissues as indicated were solubilized by directly adding RIPA buffer (50 mM Tris HCl, 150 mM NaCl, 1.0% v/v, NP-40, 0.5% w/v, sodium deoxycholate, 1.0 mM ethylenediamine tetraacetic acid, EDTA, 0.1% w/v, sodium dodecyl sulphate, SDS, and 0.01% w/v sodium azide, pH of 7.4) containing protease (P8340; Sigma Aldrich, Sao Paulo, Brazil) and phosphatase (P5726, Sigma Aldrich, Sao Paulo, Brazil) inhibitors cocktails, followed by sonication with a micro-tip for 5 s. After 30 min of incubation on ice, samples were centrifuged for 30 min at 12,000× g. Proteins from supernatants (50 µg) were separated by 10% SDS-PAGE and transferred to nitrocellulose membranes for immunoblotting with mouse monoclonal anti-phospho extracellular signal-regulated kinase 1/2 (anti-pErk; Erk 1/2 phosphorylation at Thr202-Tyr204; 1:1000; Cell Signaling, Boston, MA, USA), and rabbit polyclonal anti-total extracellular signal-regulated kinase 1/2 (Erk; anti-total Erk 1/2, 1:1000; Cell Signaling, Boston, MA, USA) antibodies. Blots were also treated with rabbit anti-phospho Akt (S473) (anti-pAkt, 1:1000) and mouse polyclonal anti-total Akt (anti-Akt, 1:1000) (Cell Signaling, Boston, MA, USA) and anti-myogenin (1:1000, Abcam, UK). Protein normalization indicated was performed using rabbit polyclonal anti-glyceraldehyde 3-phosphate dehydrogenase (GAPDH; 1:2000; Proteimax Biotechnology, São Paulo, Brazil) antibodies or anti-β-actin mouse antiserum (1:2000; Sigma Aldrich, Sao Paulo, Brazil). Blots were incubated with horseradish peroxidase-conjugated secondary antibodies for 3 h at room temperature. Western blot bands were visualized with Super-Signal West Pico Chemiluminescent substrate (Thermo Scientific) using the ChemiDoc™ MP Imaging System (BioRad, Hercules, CA, USA), and quantified using ImageJ 1.49 software. All results are expressed as the means ± standard error of the mean (SEM). The statistical comparisons were performed using Student’s t-test or analysis of variance (ANOVA), followed by ad-hoc Tukey’s test (n = 7). Data were statistically analyzed with GraphPad Prism software (GraphPad Software Inc, San Diego, CA, USA).\nFigure 5 Western blotting for ERK and AKT in epididymal adipose and tibial muscle tissues following ip administration of Ric4 to WT mice. Mice were treated ip with vehicle (Control) or Ric4 (600 µg/kg). Tissues were collected 30 min after the Ric4 administration and processed for Western blots as detailed in Section 2.5. The phosphorylation of either ERK or AKT in epididymal adipose tissue (A,B) and tibial muscle tissue (C,D) were analyzed using antibodies anti-pErk (A,C) or anti-pAkt (B,D). […]"}, "C57BL/6N (WT) mice": {"test_system": "C57BL/6N (WT) mice", "assay_type": "in vivo, mouse", "conditions": "WT mice fasted 12 h, glucose 2 g/kg ip at time zero", "procedure": "In vivo experiments were conducted with male C57BL/6N (WT) mice 12–16 weeks-old (University of São Paulo Medical School Animal Facility, SP, Brazil). Mice were maintained in individual ventilated cages (Amresco, SP, Brazil), under standardized conditions with an artificial 12 h dark–light cycle, with free access to standard chow (Nuvital Nutrientes S.A., Colombo, PR, Brazil) and drinking water ad libitum. The number of animals used was the minimum necessary to obtain statistically significant results and they were maintained and used in accordance with the guidelines of the National Council for Control of Animal Experiments (CONCEA), following international norms of animal care and maintenance. Thus, we hereby state that all experimental protocols were previously approved by University of São Paulo Ethic committee councils from Biomedical Science Institute (approval number for mice experimentation ICB/USP 22/2017).\nWT mice were fasted for 12 h and blood samples were taken before and at 15, 30, 60, 90, and 120 min after the intraperitoneal (ip) injection of 2 g/kg glucose. Glycemia was measured using a glucometer (Accu-Check Performa, ROCHE, São Paulo, Brazil). Peptides were evaluated to affect glucose uptake either after ip or oral (by gavage) administration. After 20 min glucose was administrated (blood glucose levels reached 400 mg/dL), animals received ip or oral administration of either saline, insulin (0.75 IU/kg), or peptide (Ric2 or Ric4; 600 µg/kg). In addition, a group of animals received oral administration of either water or Ric2 or Ric4 (600 µg/kg). Glycemia was measured as indicated following vehicle, insulin, or peptide administration."}}}
{"sequence": "LASVSTVLTSKYR [Ric4, intracellular peptide derived from hemoglobin alpha subunit, last 13 C-terminal amino acids]", "values": [{"measurement": "Akt phosphorylation in epididymal adipose tissue", "setting": "[1]", "result": "increased"}, {"measurement": "Akt phosphorylation in tibial skeletal muscle", "setting": "[1]", "result": "not Akt phosphorylation"}, {"measurement": "Erk phosphorylation in epididymal adipose tissue", "setting": "[1]", "result": "increased"}, {"measurement": "Erk phosphorylation in tibial skeletal muscle", "setting": "[1]", "result": "increased"}, {"measurement": "blood glucose levels in GTT, ip administration", "setting": "C57BL/6N (WT) mice; peptide 600 µg/kg ip 20 min after glucose", "result": "rapidly induced a decrease in blood glucose levels"}, {"measurement": "blood glucose levels in GTT, oral administration", "setting": "C57BL/6N (WT) mice; peptide 600 µg/kg orally by gavage", "result": "decreased blood glucose levels"}]}
